Experimental data reported in PubChem BioAssay AID1982 (Sanford-Burnham Center for Chemical Genomics, 2009).
Activity calls are given as the source filed them. No rule for the calls is given here.

Key:
Test in all cases: kinase panel binding selectivity, selectivity assay, biochemical, KINOMEscan (AID 1982)
[1] = target: Vascular endothelial growth factor receptor 3 (Homo sapiens) (UniProt P35916); conditions: KINOMEscan 353-kinase binding panel, qPCR; FLT4; at 10 µM; stronger effect = lower value
[2] = target: Protein kinase C theta type (Homo sapiens) (UniProt Q04759); conditions: KINOMEscan 353-kinase binding panel, qPCR; PRKCQ; at 10 µM; stronger effect = lower value
INSRR = conditions: KINOMEscan 353-kinase binding panel, qPCR, at 10 µM, stronger effect = lower value
[3] = target: Mast/stem cell growth factor receptor Kit (Homo sapiens) (UniProt P10721); conditions: KINOMEscan 353-kinase binding panel, qPCR, at 10 µM, stronger effect = lower value
MYO3B = conditions: KINOMEscan 353-kinase binding panel, qPCR, at 10 µM, stronger effect = lower value
[4] = target: Calcium/calmodulin-dependent protein kinase type II subunit alpha (Homo sapiens) (UniProt Q9UQM7); conditions: KINOMEscan 353-kinase binding panel, qPCR; CAMK2A; at 10 µM; stronger effect = lower value
MARK1 = conditions: KINOMEscan 353-kinase binding panel, qPCR, at 10 µM, stronger effect = lower value
MST3 = conditions: KINOMEscan 353-kinase binding panel, qPCR, at 10 µM, stronger effect = lower value
[5] = target: Inhibitor of nuclear factor kappa-B kinase subunit alpha (Homo sapiens) (UniProt O15111); conditions: KINOMEscan 353-kinase binding panel, qPCR; IKK-alpha; at 10 µM; stronger effect = lower value
JAK1(Kin.Dom.1) = conditions: KINOMEscan 353-kinase binding panel, qPCR, at 10 µM, stronger effect = lower value
FGFR2 = conditions: KINOMEscan 353-kinase binding panel, qPCR, at 10 µM, stronger effect = lower value
[6] = target: Tyrosine-protein kinase FRK (Homo sapiens) (UniProt P42685); conditions: KINOMEscan 353-kinase binding panel, qPCR, at 10 µM, stronger effect = lower value
[7] = target: Tyrosine-protein kinase Lck (Homo sapiens) (UniProt P06239); conditions: KINOMEscan 353-kinase binding panel, qPCR, at 10 µM, stronger effect = lower value
RPS6KA2(Kin.Dom.2) = conditions: KINOMEscan 353-kinase binding panel, qPCR, at 10 µM, stronger effect = lower value
[8] = target: Tyrosine-protein kinase Fes/Fps (Homo sapiens) (UniProt P07332); conditions: KINOMEscan 353-kinase binding panel, qPCR, at 10 µM, stronger effect = lower value
[9] = target: High affinity nerve growth factor receptor (Homo sapiens) (UniProt P04629); conditions: KINOMEscan 353-kinase binding panel, qPCR; TRKA; at 10 µM; stronger effect = lower value
MEK6 = conditions: KINOMEscan 353-kinase binding panel, qPCR, at 10 µM, stronger effect = lower value
RIOK1 = conditions: KINOMEscan 353-kinase binding panel, qPCR, at 10 µM, stronger effect = lower value
ERK5 = conditions: KINOMEscan 353-kinase binding panel, qPCR, at 10 µM, stronger effect = lower value
AAK1 = conditions: KINOMEscan 353-kinase binding panel, qPCR, at 10 µM, stronger effect = lower value
[10] = target: Platelet-derived growth factor receptor alpha (Homo sapiens) (UniProt P16234); conditions: KINOMEscan 353-kinase binding panel, qPCR; PDGFRA; at 10 µM; stronger effect = lower value
MEK2 = conditions: KINOMEscan 353-kinase binding panel, qPCR, at 10 µM, stronger effect = lower value
[11] = target: Serine/threonine-protein kinase PAK 6 (Homo sapiens) (UniProt Q9NQU5); conditions: KINOMEscan 353-kinase binding panel, qPCR; PAK6; at 10 µM; stronger effect = lower value
[12] = target: BDNF/NT-3 growth factors receptor (Homo sapiens) (UniProt Q16620); conditions: KINOMEscan 353-kinase binding panel, qPCR; TRKB; at 10 µM; stronger effect = lower value
ERK8 = conditions: KINOMEscan 353-kinase binding panel, qPCR, at 10 µM, stronger effect = lower value
[13] = target: Dual specificity protein kinase CLK4 (Homo sapiens) (UniProt Q9HAZ1); conditions: KINOMEscan 353-kinase binding panel, qPCR, at 10 µM, stronger effect = lower value
LATS1 = conditions: KINOMEscan 353-kinase binding panel, qPCR, at 10 µM, stronger effect = lower value
RPS6KA1(Kin.Dom.2) = conditions: KINOMEscan 353-kinase binding panel, qPCR, at 10 µM, stronger effect = lower value
[14] = target: Ribosomal protein S6 kinase alpha-4 (Homo sapiens) (UniProt O75676); conditions: KINOMEscan 353-kinase binding panel, qPCR, at 10 µM, stronger effect = lower value
LATS2 = conditions: KINOMEscan 353-kinase binding panel, qPCR, at 10 µM, stronger effect = lower value
CIT = conditions: KINOMEscan 353-kinase binding panel, qPCR, at 10 µM, stronger effect = lower value
CSNK1A1L = conditions: KINOMEscan 353-kinase binding panel, qPCR, at 10 µM, stronger effect = lower value
CAMK4 = conditions: KINOMEscan 353-kinase binding panel, qPCR, at 10 µM, stronger effect = lower value
[15] = target: Ribosomal protein S6 kinase alpha-5 (Homo sapiens) (UniProt O75582); conditions: KINOMEscan 353-kinase binding panel, qPCR, at 10 µM, stronger effect = lower value
PFTAIRE2 = conditions: KINOMEscan 353-kinase binding panel, qPCR, at 10 µM, stronger effect = lower value

Mast/stem cell growth factor receptor Kit (Homo sapiens), sequence (P10721 whole entry, looked up): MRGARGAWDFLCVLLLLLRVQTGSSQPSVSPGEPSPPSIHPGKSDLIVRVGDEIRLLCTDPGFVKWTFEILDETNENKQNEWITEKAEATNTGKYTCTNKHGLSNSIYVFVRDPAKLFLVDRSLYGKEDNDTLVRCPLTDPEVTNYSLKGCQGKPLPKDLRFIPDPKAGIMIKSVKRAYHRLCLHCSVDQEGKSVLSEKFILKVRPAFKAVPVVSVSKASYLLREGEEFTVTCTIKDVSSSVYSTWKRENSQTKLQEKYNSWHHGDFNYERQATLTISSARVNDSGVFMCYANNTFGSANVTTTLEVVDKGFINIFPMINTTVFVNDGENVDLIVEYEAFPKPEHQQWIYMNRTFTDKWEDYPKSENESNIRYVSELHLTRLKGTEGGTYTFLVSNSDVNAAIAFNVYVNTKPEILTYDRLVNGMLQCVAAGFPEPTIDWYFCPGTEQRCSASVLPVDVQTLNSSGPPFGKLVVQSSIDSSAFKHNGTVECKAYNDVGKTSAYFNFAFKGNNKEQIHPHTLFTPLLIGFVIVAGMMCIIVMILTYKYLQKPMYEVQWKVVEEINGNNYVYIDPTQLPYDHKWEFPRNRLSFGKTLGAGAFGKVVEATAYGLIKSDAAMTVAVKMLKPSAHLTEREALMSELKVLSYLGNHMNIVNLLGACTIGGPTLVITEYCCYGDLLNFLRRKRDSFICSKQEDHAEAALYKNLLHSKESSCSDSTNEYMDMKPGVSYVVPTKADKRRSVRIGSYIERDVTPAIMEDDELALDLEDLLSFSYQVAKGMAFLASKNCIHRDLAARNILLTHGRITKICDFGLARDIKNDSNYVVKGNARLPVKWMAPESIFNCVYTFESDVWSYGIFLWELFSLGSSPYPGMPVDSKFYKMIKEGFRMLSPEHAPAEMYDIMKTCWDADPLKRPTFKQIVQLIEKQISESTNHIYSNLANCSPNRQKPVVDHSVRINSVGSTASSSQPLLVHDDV
Ribosomal protein S6 kinase alpha-4 (Homo sapiens), sequence (O75676 whole entry, looked up): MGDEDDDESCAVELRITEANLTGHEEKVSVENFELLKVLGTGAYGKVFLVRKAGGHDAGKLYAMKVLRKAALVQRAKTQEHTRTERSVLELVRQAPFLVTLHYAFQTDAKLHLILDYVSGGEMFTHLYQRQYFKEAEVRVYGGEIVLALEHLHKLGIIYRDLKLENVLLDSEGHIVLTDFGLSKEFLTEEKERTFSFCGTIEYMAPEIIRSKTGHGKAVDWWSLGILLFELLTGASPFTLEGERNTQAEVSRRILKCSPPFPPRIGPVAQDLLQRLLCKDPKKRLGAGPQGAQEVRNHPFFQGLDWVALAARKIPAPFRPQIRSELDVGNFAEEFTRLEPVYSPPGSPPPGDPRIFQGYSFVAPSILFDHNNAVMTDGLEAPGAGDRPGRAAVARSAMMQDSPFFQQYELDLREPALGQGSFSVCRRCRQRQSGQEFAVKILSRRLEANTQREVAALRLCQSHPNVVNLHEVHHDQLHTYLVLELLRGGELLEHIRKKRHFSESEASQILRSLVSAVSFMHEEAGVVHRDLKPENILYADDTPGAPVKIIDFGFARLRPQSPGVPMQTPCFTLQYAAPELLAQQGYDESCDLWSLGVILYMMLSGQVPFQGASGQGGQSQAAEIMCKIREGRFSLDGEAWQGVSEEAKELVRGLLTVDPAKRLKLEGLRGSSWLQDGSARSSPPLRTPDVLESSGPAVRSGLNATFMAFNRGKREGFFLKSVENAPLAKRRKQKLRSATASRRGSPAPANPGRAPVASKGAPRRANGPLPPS
Ribosomal protein S6 kinase alpha-5 (Homo sapiens), sequence (O75582 whole entry, looked up): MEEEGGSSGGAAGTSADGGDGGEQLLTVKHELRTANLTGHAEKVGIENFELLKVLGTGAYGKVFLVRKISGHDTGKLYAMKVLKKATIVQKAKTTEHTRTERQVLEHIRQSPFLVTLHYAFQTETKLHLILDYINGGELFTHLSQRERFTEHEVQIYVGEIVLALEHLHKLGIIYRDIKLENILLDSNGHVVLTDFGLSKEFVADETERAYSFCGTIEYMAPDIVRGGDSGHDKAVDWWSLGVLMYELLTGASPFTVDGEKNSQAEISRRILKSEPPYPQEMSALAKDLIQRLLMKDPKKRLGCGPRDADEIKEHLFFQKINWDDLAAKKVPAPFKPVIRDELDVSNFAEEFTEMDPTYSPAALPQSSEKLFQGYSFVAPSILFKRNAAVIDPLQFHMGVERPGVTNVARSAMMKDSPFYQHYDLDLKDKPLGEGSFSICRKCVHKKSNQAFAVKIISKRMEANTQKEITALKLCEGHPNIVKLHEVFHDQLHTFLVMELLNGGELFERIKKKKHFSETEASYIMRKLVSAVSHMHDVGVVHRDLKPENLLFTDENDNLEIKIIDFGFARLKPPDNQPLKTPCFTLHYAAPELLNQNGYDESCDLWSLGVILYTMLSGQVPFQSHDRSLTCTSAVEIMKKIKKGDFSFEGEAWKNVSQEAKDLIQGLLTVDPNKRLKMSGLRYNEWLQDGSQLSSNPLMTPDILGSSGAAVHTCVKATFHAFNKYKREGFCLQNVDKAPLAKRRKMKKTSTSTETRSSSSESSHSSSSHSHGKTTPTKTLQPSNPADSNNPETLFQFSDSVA
Platelet-derived growth factor receptor alpha (Homo sapiens), sequence (P16234 whole entry, looked up): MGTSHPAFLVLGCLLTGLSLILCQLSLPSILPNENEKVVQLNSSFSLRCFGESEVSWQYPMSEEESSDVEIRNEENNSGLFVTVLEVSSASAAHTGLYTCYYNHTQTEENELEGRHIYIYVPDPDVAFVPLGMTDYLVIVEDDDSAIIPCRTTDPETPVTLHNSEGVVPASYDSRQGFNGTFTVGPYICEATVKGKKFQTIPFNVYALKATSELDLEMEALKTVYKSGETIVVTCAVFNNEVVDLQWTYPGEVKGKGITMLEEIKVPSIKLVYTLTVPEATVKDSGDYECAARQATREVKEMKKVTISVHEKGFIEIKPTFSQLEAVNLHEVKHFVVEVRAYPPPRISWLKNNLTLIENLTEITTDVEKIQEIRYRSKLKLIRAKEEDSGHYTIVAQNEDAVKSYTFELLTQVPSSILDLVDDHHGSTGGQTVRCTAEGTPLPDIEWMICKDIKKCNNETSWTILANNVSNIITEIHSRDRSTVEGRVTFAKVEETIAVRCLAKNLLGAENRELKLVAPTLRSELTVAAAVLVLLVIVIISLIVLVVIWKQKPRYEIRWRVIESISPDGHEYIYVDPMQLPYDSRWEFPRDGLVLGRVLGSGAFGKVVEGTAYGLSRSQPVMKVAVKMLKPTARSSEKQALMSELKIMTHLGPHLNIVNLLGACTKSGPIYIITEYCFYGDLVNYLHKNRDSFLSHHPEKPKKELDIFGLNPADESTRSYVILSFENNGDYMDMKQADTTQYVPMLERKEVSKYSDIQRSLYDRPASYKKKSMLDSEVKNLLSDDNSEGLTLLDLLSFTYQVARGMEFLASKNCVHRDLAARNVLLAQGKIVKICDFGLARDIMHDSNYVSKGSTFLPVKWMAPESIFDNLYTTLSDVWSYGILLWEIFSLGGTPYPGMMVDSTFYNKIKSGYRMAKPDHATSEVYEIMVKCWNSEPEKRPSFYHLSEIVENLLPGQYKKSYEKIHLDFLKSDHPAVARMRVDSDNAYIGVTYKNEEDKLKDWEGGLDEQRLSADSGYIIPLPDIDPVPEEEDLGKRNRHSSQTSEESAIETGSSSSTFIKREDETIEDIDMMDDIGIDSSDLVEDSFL
Vascular endothelial growth factor receptor 3 (Homo sapiens), sequence (P35916 whole entry, looked up): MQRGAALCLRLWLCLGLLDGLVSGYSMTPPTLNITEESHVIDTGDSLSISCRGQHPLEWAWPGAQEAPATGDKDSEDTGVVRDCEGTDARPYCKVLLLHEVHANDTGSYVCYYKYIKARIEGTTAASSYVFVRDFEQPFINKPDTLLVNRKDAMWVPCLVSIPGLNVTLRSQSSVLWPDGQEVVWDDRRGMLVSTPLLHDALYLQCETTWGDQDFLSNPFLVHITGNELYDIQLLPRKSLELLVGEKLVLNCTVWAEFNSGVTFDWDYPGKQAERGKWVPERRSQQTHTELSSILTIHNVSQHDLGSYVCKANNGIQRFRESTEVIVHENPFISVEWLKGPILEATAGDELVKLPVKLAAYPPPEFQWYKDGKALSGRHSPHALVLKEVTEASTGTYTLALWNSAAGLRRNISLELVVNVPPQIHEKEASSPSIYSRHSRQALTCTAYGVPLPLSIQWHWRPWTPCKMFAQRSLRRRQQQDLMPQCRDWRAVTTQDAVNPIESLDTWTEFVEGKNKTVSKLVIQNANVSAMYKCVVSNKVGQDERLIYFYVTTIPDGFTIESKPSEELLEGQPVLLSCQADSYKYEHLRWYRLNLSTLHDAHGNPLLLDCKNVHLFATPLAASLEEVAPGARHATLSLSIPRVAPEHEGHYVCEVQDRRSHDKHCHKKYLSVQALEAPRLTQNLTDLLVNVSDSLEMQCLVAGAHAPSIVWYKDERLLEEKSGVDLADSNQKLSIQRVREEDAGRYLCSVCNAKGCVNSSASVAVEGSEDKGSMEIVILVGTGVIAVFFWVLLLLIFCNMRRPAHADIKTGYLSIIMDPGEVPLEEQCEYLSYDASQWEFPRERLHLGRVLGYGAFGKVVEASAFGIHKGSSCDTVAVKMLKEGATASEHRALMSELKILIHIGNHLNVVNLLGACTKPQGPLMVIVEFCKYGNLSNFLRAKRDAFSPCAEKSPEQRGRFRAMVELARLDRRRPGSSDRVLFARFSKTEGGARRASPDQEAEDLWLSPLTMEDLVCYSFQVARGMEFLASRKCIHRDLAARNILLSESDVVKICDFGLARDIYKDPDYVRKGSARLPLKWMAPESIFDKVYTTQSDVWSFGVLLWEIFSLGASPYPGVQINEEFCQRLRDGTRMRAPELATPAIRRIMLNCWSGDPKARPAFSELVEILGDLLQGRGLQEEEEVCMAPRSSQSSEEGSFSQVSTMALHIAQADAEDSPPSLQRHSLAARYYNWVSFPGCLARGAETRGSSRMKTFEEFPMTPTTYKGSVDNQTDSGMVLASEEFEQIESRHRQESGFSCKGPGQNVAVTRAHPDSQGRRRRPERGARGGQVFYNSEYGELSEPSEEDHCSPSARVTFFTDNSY

percent of control binding [1]: 100% (inactive)
percent of control binding [2]: 100% (inactive)
percent of control binding (INSRR): 100% (inactive)
percent of control binding [3]: 92% (inactive)
percent of control binding ([3]; KIT(D816V)): 90% (inactive)
percent of control binding ([3]; KIT(V559D)): 95% (inactive)
percent of control binding ([3]; KIT(V559D,T670I)): 94% (inactive)
percent of control binding ([3]; KIT(V559D,V654A)): 92% (inactive)
percent of control binding (MYO3B): 65% (inactive)
percent of control binding [4]: 85% (inactive)
percent of control binding (MARK1): 100% (inactive)
percent of control binding (MST3): 100% (inactive)
percent of control binding [5]: 74% (inactive)
percent of control binding (JAK1(Kin.Dom.1)): 100% (inactive)
percent of control binding (FGFR2): 100% (inactive)
percent of control binding [6]: 89% (inactive)
percent of control binding [7]: 100% (inactive)
percent of control binding (RPS6KA2(Kin.Dom.2)): 100% (inactive)
percent of control binding [8]: 99% (inactive)
percent of control binding [9]: 100% (inactive)
percent of control binding (MEK6): 97% (inactive)
percent of control binding (RIOK1): 100% (inactive)
percent of control binding (ERK5): 100% (inactive)
percent of control binding (AAK1): 100% (inactive)
percent of control binding [10]: 86% (inactive)
percent of control binding (MEK2): 87% (inactive)
percent of control binding [11]: 76% (inactive)
percent of control binding [12]: 100% (inactive)
percent of control binding (ERK8): 100% (inactive)
percent of control binding [13]: 100% (inactive)
percent of control binding (LATS1): 94% (inactive)
percent of control binding (RPS6KA1(Kin.Dom.2)): 93% (inactive)
percent of control binding ([14]; RPS6KA4(Kin.Dom.1)): 100% (inactive)
percent of control binding ([14]; RPS6KA4(Kin.Dom.2)): 100% (inactive)
percent of control binding (LATS2): 89% (inactive)
percent of control binding (CIT): 100% (inactive)
percent of control binding (CSNK1A1L): 99% (inactive)
percent of control binding (CAMK4): 100% (inactive)
percent of control binding ([15]; RPS6KA5(Kin.Dom.1)): 100% (inactive)
percent of control binding ([15]; RPS6KA5(Kin.Dom.2)): 100% (inactive)
percent of control binding (PFTAIRE2): 53% (inactive)
Structure (SMILES): Cc1cc2nc(NCCCO)n(CC(=O)c3cc(C(C)(C)C)c(O)c(C(C)(C)C)c3)c2cc1C
